Laboratory results as given in article PMC6661952 (BMC Chemistry, 2019).
Several values for one entry are separate records, joined by “and”; a condition that tells them apart may be missing. Equal values may be shown once. Read-outs that look alike come from different tables or passages of the source.

Details: for Log k (logarithm of the retention factor): C18 column, methanol-water; for φ 0 (isocratic chromatographic hydrophobicity index): φ 0 = − log kw/S, methanol as organic modifier, C18; for Log kw (lipophilicity chromatographic index, intercept of log k = log kw − S φ): extrapolated to pure water as eluent, C18, methanol-water
Protocol: For chromatographic analysis, stock solutions (200 μg/mL) of each of the investigated samples were prepared in methanol. HPLC measurements were performed utilizing Shimadzu Prominence HPLC system (Shimadzu Corporation, Japan) consisting of LC-20 AD pump, DGU-20 A5 degasser, CBM-20A interface, and SPD-20A UV–Vis detector with a 20 µL injection loop. The column utilized for studying the chromatographic behavior of the analytes was the most frequently used for lipophilicity investigations: Waters symmetry® C18 column [250 mm × 4.6 mm (i.d.), 5-μm particle size]. The flow rate was 1.2 mL/min at room temperature. The retention behaviour of the analytes was investigated as a function of mobile phase composition ranging from 60–80% methanol and 40–20% water. The HPLC analyses were carried out at room temperature under isocratic conditions. Membrane filters (0.45 μm) from Sartorius (Goettingen, Germany) were used for filtration of samples. The absorbance of the analytes during a chromatographic run was performed at 200 nm. Each experiment was run in duplicate. Chromatographic data were collected using LabSolutions CS software. H^1NMR spectra were recorded using Bruker NMR spectrometer (Bruker GmbH, Germany),
It was shown from previous reports that the chromatographic systems using methanol: water as mobile phases were better for log k modeling than those containing acetonitrile as an organic modifier. […] Chromatographic techniques including HPLC are based on the determination of the retention parameters. The indices of lipophilicity measured by HPLC are obtained from the logarithm of the retention factor (log k), which is calculated by the following equation:1 logk=logtr-t0/t0 where; tR is the retention time of the solute and t0 is the retention time of unretained species.
Estimating log kw directly is often very difficult, and is nearly non-feasible, because it can produce elongated retention time and also extreme peak broadening. […] Consequently, to obtain log kw, an extrapolation to 100% of pure water was carried out. Then, linear regression analysis was performed. Linear extrapolation is favored using definite ratios of organic modifier consistent with the lipophilicity level of the solutes.
Another substitute to the index of lipophilicity is the chromatographic index of hydrophobicity φ 0 which was first given by Valkò et al.. It is calculated simply by the equation: φ 0 = − log kw/S. φ0 denotes the volume fraction of the organic modifier in the mobile phase at which equal partitioning of the solute between the mobile and stationary phases is obtained, that is, k = 1, log k = 0 [22]. The value of φ 0 is specific for each compound; it relies solely on the pH, organic modifier and temperature.

[1] = 65% methanol in the mobile phase
[2] = 70% methanol in the mobile phase
[3] = 75% methanol in the mobile phase
[4] = 60% methanol in the mobile phase

SMILES	Log k (logarithm of the retention factor) [1]	Log k (logarithm of the retention factor) [2]	Log k (logarithm of the retention factor) [3]	Log k (logarithm of the retention factor) (80% methanol in the mobile phase)	Log k (logarithm of the retention factor) [4]	φ 0 (isocratic chromatographic hydrophobicity index)	Log kw (lipophilicity chromatographic index, intercept of log k = log kw − S φ)
Cc1ccc(-c2cc(C(F)(F)F)nn2-c2ccc(S(N)(=O)=O)cc2)cc1 [Celecoxib, 4-[5-(4-methylphenyl)-3-(trifluoromethyl)pyrazol-1yl]benzenesulfonamide, reference compound]	0.950	0.83	0.530	0.235			
O=C(CS(=O)(=O)c1ccccc1)c1ccccc1 [Compound 11a]	0.041				0.088	64.83	
Cc1ccc(C(=O)CS(=O)(=O)c2ccccc2)cc1 [Compound 11b]	0.493				0.317	69.81	3.597 and 3.60
O=C(CS(=O)(=O)c1ccccc1)c1ccc(Br)cc1 [Compound 11c]	0.501	0.123			0.635	75.14	3.151 and 3.15
Cc1ccc(S(=O)(=O)CC(=O)c2ccc(Br)cc2)cc1 [Compound 11d]	0.901	0.364	0.123			77.99	4.784 and 4.78

Second part, the compound after the results:

Log k (logarithm of the retention factor) [1]	Log k (logarithm of the retention factor) [2]	Log k (logarithm of the retention factor) [3]	Log k (logarithm of the retention factor) (80% methanol in the mobile phase)	Log k (logarithm of the retention factor) [4]	φ 0 (isocratic chromatographic hydrophobicity index)	Log kw (lipophilicity chromatographic index, intercept of log k = log kw − S φ)	SMILES
0.053				0.130	64.39	1.941 and 1.94	O=S(=O)(C/C(=N/O)c1ccccc1)c1ccccc1 [Compound 16a]
0.280	0.150			0.481	72.57	2.715 and 2.72	Cc1ccc(/C(CS(=O)(=O)c2ccccc2)=N\O)cc1 [Compound 16b]
0.824	0.740			0.950	77.97	4.59	O=S(=O)(C/C(=N/Nc1ccccc1)c1ccccc1)c1ccccc1 [Compound 17a]
0.743	0.611			0.847	74.52	5.182 and 5.18	Cc1ccc(/C(CS(=O)(=O)c2ccccc2)=N\Nc2ccccc2)cc1 [Compound 17b]
